The source made the active and inactive calls. The rule behind the calls is not given here.
Columns and labels:
[1] = molecular target: T1, C-C chemokine receptor type 2 (Homo sapiens, UniProt P41597); assay: Displacement of [125I]SDF1alpha from CCR2/CXCR4 expressed in CHOK1 cells; assay type: cell-based; details: CHO-K1; concentration not given here
Target sequence in this assay (P41597 whole entry, looked up): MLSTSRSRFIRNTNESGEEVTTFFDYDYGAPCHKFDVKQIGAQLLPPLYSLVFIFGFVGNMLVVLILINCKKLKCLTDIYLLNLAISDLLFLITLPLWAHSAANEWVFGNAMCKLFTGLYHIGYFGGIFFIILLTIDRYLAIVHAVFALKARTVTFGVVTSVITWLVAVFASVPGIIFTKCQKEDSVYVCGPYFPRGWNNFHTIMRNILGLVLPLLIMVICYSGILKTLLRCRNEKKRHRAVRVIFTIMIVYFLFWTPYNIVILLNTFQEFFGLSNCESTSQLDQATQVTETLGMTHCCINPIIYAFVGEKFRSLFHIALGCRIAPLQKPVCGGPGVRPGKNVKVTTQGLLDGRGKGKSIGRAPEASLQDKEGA

[2] = molecular target: T1, C-C chemokine receptor type 2; assay: Displacement of [125I]MCP1 from CCR2/CXCR4 expressed in CHOK1 cells; assay type: cell-based; details: CHO-K1; concentration not given here
Target sequence in this assay (P41597 whole entry, looked up): as above

[3] = molecular target: T1, C-C chemokine receptor type 2; assay: biochemical
Target sequence in this assay (P41597 whole entry): as the sequence (P41597 whole entry, looked up) above
Description: Displacement of [125I]MCP1 from CCR2 expressed in CHOK1 cells

Homo sapiens = species on record: Homo sapiens; assay: Inhibition of migration of human CD4+ lymphoblasts towards MCP1 by chemotaxis assay; assay type: functional

| inhibition [1] | inhibition [2] | IC50 [3] | Structure (SMILES) | Activity (Homo sapiens) |
| --- | --- | --- | --- | --- |
| 38.1% | 90.7% | 0.25 nM | Cc1ccc(-c2ccc3c(c2)C=C(C(=O)Nc2ccc(C[N+](C)(C)C4CCOCC4)cc2)CCC3)cc1 | Active |
| 87.1% | 36.2% |  | c1cc(CN2CCCNCCNCCCNCC2)ccc1CN1CCCNCCNCCCNCC1 |  |

From ChEMBL document CHEMBL1156505, “Allosteric transinhibition by specific antagonists in CCR2/CXCR4 heterodimers” (J Biol Chem, 2007)
